The results in this text go back to patent publication US20060194835A1, “Compositions and methods for treating or preventing flaviviridae infections” (priority 2005, published 2006).

SMILES strings stand for the structures. A value given as a limit tells only on which side of the number the result lay.

The subject of series [1] is BVDV. The experiment in a line: Protection of MDBK cells from BVDV-induced cytopathicity (CPE reduction, MTS/PMS). It counts as cell-based, bovine viral diarrhea virus. Particulars: Bovine viral diarrhea virus isolates and strains, MDBK, 50% CPE reduction; MOI 0.01. A general note: Damage to the host cells serves as the signal in cytopathic effect assays.
Series [2] relates to BVDV. The experiment in a line: Double combination checkerboard CPE assay, MacSynergy II and isobolograms. It counts as cell-based, bovine viral diarrhea virus. On the procedure: A double combination assay was performed using MDBK cells infected with BVDV in an inhibition of cytopathic effect (CPE) assay as described in Example 2. The double drug combinations were measured by creating a “checkerboard” of drug concentrations used on cell monolayers in microtiter plates, with one drug being titrated horizontally and the other drug titrated vertically, and each double combination being tested at least twice.
The EC50 values of a first test compound derived while in combination with a second test compound were plotted against the corresponding concentration of the second test compound to create an isobole (dose pair). All of the isoboles were plotted in an isobologram to determine the presence of synergy, antagonism or additivity for the combined test compounds. […] The line connecting the monotherapy EC50 values represents the theoretical additivity effect values for the two compounds.
In addition to generating isobolograms, the checkerboard data was imported into MacSynergy™ II software to graph the observed synergy (or additive or antagonism) volumes for the double combinations tested. Briefly, the calculated additive interactions were subtracted from the experimentally determined values to reveal the corresponding drug concentrations at which a synergistic (indicated by positive % values) or antagonistic (indicated by negative % values) effect is observed. The greater the positive percent volume observed, the greater the synergy between the two compounds. […] In contrast, any value about or less than −25 μM^2% or μM(IU/mL) % is indicative of a significant antagonistic effect. The data presented in Table 5 represent volumes of synergy or antagonism with 95% confidence. The confidence level was calculated using a Bonferroni adjustment as a conservative estimate of significance to statistically evaluate the data.

Series [3] has as its system BVDV. The experiment in a line: Triple combination checkerboard CPE assay (celgosivir or castanospermine + interferon-α2b + ribavirin), MacSynergy II. It counts as cell-based, bovine viral diarrhea virus. The note with it: for EC50: Bovine viral diarrhea virus isolates and strains, read-out: Average Celgosivir EC50. The protocol: Each double or triple combination was performed twice. The combination efficacy data were analyzed using the MacSynergy™ II software program as described herein.
Each double or triple combination was performed twice. The combination efficacy data were analyzed using the MacSynergy™ II software program as described herein. The EC50 for each of celgosivir and castanospermine was calculated from the triple combination studies described in Example 6.
Each double or triple combination was performed twice. The combination efficacy data were analyzed using the MacSynergy™ software program as described herein. The EC50 for interferon-α2b was calculated from the triple combination studies described in Example 6.

The nature of series [4]: Pharmacokinetics of orally administered celgosivir in rats (plasma castanospermine). Particulars: normal rats; loperamide 0.35 mg/kg. It counts as in vivo, Male Sprague-Dawley rats. On the procedure:
The purpose of this study was to evaluate the effect of an anti-diarrheal agent on the pharmacokinetics (PK) of orally administered celgosivir. In addition, the effect of anti-diarrheal agents on celgosivir PK was investigated. The pharmacokinetics of celgosivir was assessed by following the plasma profile of celgosivir's primary metabolite, castanospermine. By way of background, orally administered celgosivir, although well tolerated in humans, does produce side effects in the gastrointestinal tract, including flatulence and mild to moderate diarrhea. Loperamide hydrochloride, an anti-motility agent that is an active ingredient found in some over-the-counter medications used for symptomatic relief of acute and chronic diarrhea, was investigated for its effect on the PK of orally administered celgosivir. […]
At various time-points after celgosivir administration, blood samples were withdrawn from animals via the tail vein. Plasma samples were generated and stored frozen until analyzed. Plasma samples were analyzed for castanospermine, the major metabolite of celgosivir, using LC/MS. […] Celgosivir pharmacokinetics was assessed by following the plasma concentration of its primary metabolite, castanospermine. Pharmacokinetic parameters were calculated according to a two-compartment model with bio-exponential decay using the method of residuals. […]

Series [5] in a line: in vitro. The note with it: bovine.
A short description of series [6]: in vitro. The note with it: bovine. This is another data set of the same source.
Another series deals with BVDV strain NADL. Kind of series: Inhibition of viral release from BVDV-infected MDBK cells (plaque titer). Particulars: for EC50 / EC90: Bovine viral diarrhea virus isolates and strains, MDBK, 24 h.
A short description of series [7]: Drug cytotoxicity in uninfected MDBK cells (MTS/PMS). Particulars: bovine.
Series [8] is described as follows: Cytotoxicity of test compound in MDBK cells in the absence of viral infection (Example 1). The note with it: bovine, MDBK cells, uninfected.

A word on the EC50: it is the concentration at which the effect is half-maximal. In general, EC90 refers to the concentration at which the effect reaches the 90% level. Consider `CCCC(=O)O[C@H]1CN2CC[C@H](O)[C@@H]2[C@@H](O)[C@@H]1O` [Celgosivir, [1S-(1α,6β,7α,8β,8aβ)]-octahydro-1,6,7,8-indolizinetetrol 6-butanoate], for which the EC50 with BVDV [1] was 7.7 ± 3 µM; with BVDV [3] (Ribavirin 0 μM, Interferon-α2b 0 IU/mL) it was around 6.5 µM; with BVDV [3] (Ribavirin 0 μM, Interferon-α2b 0.7 IU/mL), 4.8 ± 0.7 µM; with BVDV [3] (Ribavirin 0 μM, Interferon-α2b 2.2 IU/mL) it was 3.9 ± 0.9 µM; with BVDV [3] (Ribavirin 0 μM, Interferon-α2b 6.7 IU/mL) it was 1.6 ± 0.6 µM; in the series with BVDV [3] (Ribavirin 0 μM, Interferon-α2b 20 IU/mL), below 0.4 µM. The EC50 in the series with BVDV [3] (Ribavirin 0.37 μM, Interferon-α2b 0.7 IU/mL) is 4.3 ± 1 µM; in the series with BVDV [3] (Ribavirin 0.37 μM, Interferon-α2b 2.2 IU/mL), 2.7 ± 1.3 µM; in the series on BVDV [3] (Ribavirin 0.37 μM, Interferon-α2b 6.7 IU/mL), 1 ± 0.7 µM; with BVDV [3] (Ribavirin 0.37 μM, Interferon-α2b 20 IU/mL), below 0.3 µM; in the series with BVDV [3] (Ribavirin 1.1 μM, Interferon-α2b 0.7 IU/mL), 2.9 ± 0.9 µM; in the series with BVDV [3] (Ribavirin 1.1 μM, Interferon-α2b 2.2 IU/mL), 2.1 ± 0.2 µM. Further, the EC50 with BVDV [3] (Ribavirin 1.1 μM, Interferon-α2b 6.7 IU/mL) was below 0.9 µM; with BVDV [3] (Ribavirin 1.1 μM, Interferon-α2b 20 IU/mL) it was below 0.3 µM; in the series with BVDV [3] (Ribavirin 3.3 μM, Interferon-α2b 0.7 IU/mL), below 1 µM; with BVDV [3] (Ribavirin 3.3 μM, Interferon-α2b 2.2 IU/mL), below 0.3 µM; in the series with BVDV [3] (Ribavirin 3.3 μM, Interferon-α2b 6.7 IU/mL), below 0.3 µM; with BVDV [3] (Ribavirin 3.3 μM, Interferon-α2b 20 IU/mL) it was below 0.3 µM. In the series with BVDV strain NADL, this molecule came in with a half-maximal effective concentration (EC50) of 2 ± 1.3 µM. Moreover, the figures for the “fold reduction of EC50 of celgosivir” value with BVDV [2] (at 2 μM ribavirin) and in the series with BVDV [2] (at 2.2 μM NM-107) were 3 fold and “more than 8 fold”, respectively. In the series on BVDV [3] (upon the addition of increasing concentrations of interferon-α2b), the “dose-dependent reduction in EC50” value was “up to 26 fold”. In addition, the “effect of concomitant anti-diarrheal agent on the PK of celgosivir” value in series [4] was “no significant effect”. In addition, in the series “in vitro [5]”, the CC50 at 24 h is above 2000 µM. This molecule also showed a CC50 in “in vitro [6]” above 300 µM. Further, in the series with BVDV strain NADL, the 90% effect level (EC90) was put at 7.6 ± 2.3 µM. Further, the “TI (Therapeutic Index, CC50/EC50)” value in the series on BVDV strain NADL (MOI = 1) is recorded as above 1000.
With `NC(=O)c1ncn([C@@H]2O[C@H](CO)[C@@H](O)[C@H]2O)n1` [Ribavirin, ribavirin, reference compound], the half-maximal effective concentration (EC50) in the series on BVDV [1] was found to be 4.4 ± 2 µM. The CC50 in series [7] was at least 25 µM. In the series on BVDV strain NADL, it took 1.5 ± 1 µM to reach a half-maximal effect (EC50) and the EC90 turned out to be 5.7 ± 2.7 µM. The molecule also registered a CC50 at 24 h in series [8] of 250 µM.
